According to patent US20130072440A1, “CO-CRYSTALS AND PHARMACEUTICAL FORMULATIONS COMPRISING THE SAME” (VERTEX PHARMACEUTICALS INCORPORATED, priority 2010, published 2013):
Values after ≈ are worked out from the molar mass of the structure shown.

Test: Kinetic solubility in Fed State Simulated Intestinal Fluid (FESSIF)
Format: physicochemical
Details: thermodynamic from solid
Method: Kinetic solubility profiles of VX-950 co-crystal fluid bed granules were determined in Fed State Simulated Intestinal Fluid (FESSIF).
[…] of VX-950 co-crystal fluid-bed granules were dissolved in 100 ml of FESSIF.
The experiment of Example was repeated with 166.51 mg of VX-950 co-crystal fluid-bed granules.
Kinetic solubility of the following substances or formulations were measured in FESSIF: […]

- solubility kinetic at 15 min: 5 µg/mL (≈ 7.35 µM)
- solubility kinetic at 30 min: 5 µg/mL (≈ 7.35 µM)
- solubility kinetic at 45 min: 5 µg/mL (≈ 7.35 µM)
- solubility kinetic at 60 min: 4.5 µg/mL (≈ 6.62 µM)
- solubility kinetic at 90 min: 4 µg/mL (≈ 5.88 µM)
- solubility kinetic at 180 min: 4 µg/mL (≈ 5.88 µM)
SMILES: CCC[C@H](NC(=O)[C@@H]1[C@H]2CCC[C@H]2CN1C(=O)[C@@H](NC(=O)[C@@H](NC(=O)c1cnccn1)C1CCCCC1)C(C)(C)C)C(=O)C(=O)NC1CC1 [Crystalline VX-950]
